From ChEMBL document CHEMBL1140266, “(2R)-2-methylchromane-2-carboxylic acids: discovery of selective PPARalpha agonists as hypolipidemic agents” (Bioorg Med Chem Lett, 2005)

Tests used:
in vivo [1] = settings: Sprague-Dawley, rat, iv, 0.5 mg/kg
Description: Hail-life period determined against Sprague-Dawley Rat at 0.5 mg/kg after intravenous administration; (Number of rats = 3)

[2] = biological target: T1, Peroxisome proliferator-activated receptor alpha (Homo sapiens, UniProt Q07869); assay type: functional, cell-based, COS-1
T1 sequence (Q07869 whole entry): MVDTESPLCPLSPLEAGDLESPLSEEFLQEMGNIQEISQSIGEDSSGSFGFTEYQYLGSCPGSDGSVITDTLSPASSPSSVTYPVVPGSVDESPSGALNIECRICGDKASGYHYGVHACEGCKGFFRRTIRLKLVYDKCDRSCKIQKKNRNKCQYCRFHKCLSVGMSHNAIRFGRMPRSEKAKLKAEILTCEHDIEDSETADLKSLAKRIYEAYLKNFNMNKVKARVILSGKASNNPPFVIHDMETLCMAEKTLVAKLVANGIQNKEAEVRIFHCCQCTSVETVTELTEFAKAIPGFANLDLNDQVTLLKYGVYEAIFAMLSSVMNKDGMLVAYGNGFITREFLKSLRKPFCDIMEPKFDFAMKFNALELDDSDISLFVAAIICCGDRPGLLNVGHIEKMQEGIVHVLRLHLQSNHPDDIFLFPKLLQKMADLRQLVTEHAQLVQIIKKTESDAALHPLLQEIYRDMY
Description: Agonist activity against human PPARalpha in COS-1 cell Gal4 assay

in vivo [3] = settings: Sprague-Dawley, rat, iv, 0.5 mg/kg; remark: listed apart in the source
[4] = biological target: T1, Peroxisome proliferator-activated receptor alpha
Description: In vitro binding affinity against human PPARalpha

[5] = biological target: T2, Peroxisome proliferator-activated receptor delta (Homo sapiens, UniProt Q03181)
T2 sequence (Q03181 whole entry): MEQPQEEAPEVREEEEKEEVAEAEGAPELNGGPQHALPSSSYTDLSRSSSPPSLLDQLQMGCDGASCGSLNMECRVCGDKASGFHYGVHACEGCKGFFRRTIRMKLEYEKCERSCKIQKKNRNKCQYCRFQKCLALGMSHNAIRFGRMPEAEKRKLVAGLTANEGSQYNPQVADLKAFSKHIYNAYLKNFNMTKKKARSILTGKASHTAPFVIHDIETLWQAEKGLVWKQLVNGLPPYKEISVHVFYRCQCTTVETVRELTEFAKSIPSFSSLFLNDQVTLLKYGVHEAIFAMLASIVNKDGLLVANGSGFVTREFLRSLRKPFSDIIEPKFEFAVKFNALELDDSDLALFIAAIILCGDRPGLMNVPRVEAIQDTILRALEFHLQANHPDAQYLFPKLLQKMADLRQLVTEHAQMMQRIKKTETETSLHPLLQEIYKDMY
Description: In vitro binding affinity against human PPARdelta

in vivo [6] = settings: Sprague-Dawley, rat, po, 2 mg/kg
Cricetinae gen. sp. [7] = assay type: functional, Cricetulus griseus; settings: at 10 mg/kg
Description: In vivo efficacy at 10 mpk against Hamster for cholesterol lowering effect after oral dosing; Number of animals= 9 (vehicle 0.5% methylcellulose)

Cricetinae gen. sp. [8] = assay type: functional; settings: at 10 mg/kg
Description: In vivo efficacy at 10 mpk against Hamster for triglceride lowering effect after oral dosing; Number of animals= 9 (vehicle 0.5% methylcellulose)

Cricetinae gen. sp. [9] = assay type: functional, Cricetulus griseus; settings: at 10 mg/kg; remark: listed apart in the source
Description: In vivo efficacy at 10 mpk against Hamster for triglyceride lowering effect after oral dosing; Number of animals= 9 (vehicle 0.5% methylcellulose)

[10] = biological target: T1, Peroxisome proliferator-activated receptor alpha; assay type: functional, cell-based; settings: cos-1
Description: Agonist activity against human PPARalpha in COS-1 cell Gal4 assay; NA= Not active (less than 20% activation at 10 uM)

in vivo [11] = settings: rhesus monkey, po, 2 mg/kg
Description: Bioavailability determined against adult Rhesus monkey at 2 mg/kg after peroral administration

in vivo [12] = settings: beagle, dog, iv, 0.5 mg/kg
in vivo [13] = settings: cercopithecidae, iv, 0.5 mg/kg
in vivo [14] = settings: cercopithecidae, iv, 0.5 mg/kg; remark: listed apart in the source
Description: Hail-life period determined against adult Rhesus monkey at 0.5 mg/kg after intravenous administration; (Number of rats = 3)

in vivo [15] = settings: beagle, dog, po, 2 mg/kg
Description: Bioavailability determined against adult Beagle dog at 2 mg/kg after peroral administration

in vivo [16] = settings: beagle, dog, iv, 0.5 mg/kg; remark: listed apart in the source
Description: Hail-life period determined against adult Beagle dog at 0.5 mg/kg after intravenous administration; (Number of rats = 3)

Cricetinae gen. sp. [17] = assay type: functional; settings: at 100 mg/kg
Cricetinae gen. sp. [18] = assay type: functional; settings: at 100 mg/kg; remark: listed apart in the source

Row | SMILES | EC50 [2] [nM] | IC50 [4] [nM] | IC50 [5] [nM] | further results
1 | CC[C@]1(C(=O)O)CCc2ccc(OCCCOc3ccc(C4CCCCC4)cc3Cl)cc2O1 | 5 | 15 | > 50000 | half-life (in vivo [1]): 1.2 h; clearance (in vivo [3]): 8.2 mL/min/kg; bioavailability (in vivo [6]): 57%
2 | CC[C@]1(C(=O)O)CCc2ccc(OCCCOc3ccc(C4CCC5(CC4)CC5)cc3Cl)cc2O1 | 300 | 610 | > 50000 | half-life (in vivo [1]): 4.5 h; clearance (in vivo [3]): 0.62 mL/min/kg; bioavailability (in vivo [6]): 37%
3 | CC(C)c1ccc(OCCCOc2ccc3c(c2)O[C@@](C)(C(=O)O)CC3)c(Cl)c1 | 23 | 48 | > 15000 | half-life (in vivo [1]): 1.3 h; Efficacy (Cricetinae gen. sp. [7]): -40%; clearance (in vivo [3]): 6.8 mL/min/kg; Efficacy (Cricetinae gen. sp. [8]): -18%; bioavailability (in vivo [6]): 54%
4 | C[C@]1(C(=O)O)CCc2ccc(OCCCOc3ccc(OCC4CC4)cc3Cl)cc2O1 | 240 | 600 | > 15000 | half-life (in vivo [1]): 2.9 h; Efficacy (Cricetinae gen. sp. [9]): -13%; Efficacy (Cricetinae gen. sp. [7]): -39%; clearance (in vivo [3]): 5.1 mL/min/kg; bioavailability (in vivo [6]): 76%
5 | CC(C)Oc1ccc(OCCCOc2ccc3c(c2)O[C@@](C)(C(=O)O)CC3)c(Cl)c1 | 40 | 240 | 7400 | –
6 | CC[C@]1(C(=O)O)CCc2ccc(OCCCOc3ccc(C4CCC(C)(C)CC4)cc3Cl)cc2O1 | 700 | 1700 | > 50000 | half-life (in vivo [1]): 6.8 h; clearance (in vivo [3]): 2.7 mL/min/kg; bioavailability (in vivo [6]): 95%
7 | C[C@]1(C(=O)O)CCc2ccc(OCCCOc3ccc(C4CCC5(CC4)CC5)cc3Cl)cc2O1 | 420 | 1600 | > 50000 | –
8 | CC[C@]1(C(=O)O)CCc2ccc(OCCCOc3ccc(OCC(F)(F)F)cc3Cl)cc2O1 | 4 | 66 | > 50000 | –
9 | C[C@]1(C(=O)O)CCc2ccc(OCCCOc3ccc(C4CCCCC4)cc3Cl)cc2O1 | 2 | 28 | > 15000 | –
10 | CC[C@]1(C(=O)O)CCc2ccc(OCCCOc3ccc(CC(C)C)cc3Cl)cc2O1 | 7 | 29 | > 50000 | –
11 | CC[C@]1(C(=O)O)CCc2ccc(OCCCOc3ccc(C4CCOCC4)cc3Cl)cc2O1 | 22 | 710 | > 50000 | half-life (in vivo [1]): 0.9 h; clearance (in vivo [3]): 15.6 mL/min/kg; bioavailability (in vivo [6]): 77%
12 | CC(C)Cc1ccc(OCCCOc2ccc3c(c2)O[C@@](C)(C(=O)O)CC3)c(Cl)c1 | 6 | 16 | 7600 | half-life (in vivo [1]): 2.9 h; Efficacy (Cricetinae gen. sp. [7]): -50%; clearance (in vivo [3]): 2.6 mL/min/kg; Efficacy (Cricetinae gen. sp. [8]): -29%; bioavailability (in vivo [6]): 87%
13 | C[C@]1(C(=O)O)CCc2ccc(OCCCOc3ccc(F)cc3Cl)cc2O1 | – | > 15000 | > 50000 | –
14 | O=C(O)C1CCc2ccc(OCCCOc3ccc(OCC(F)(F)F)cc3Cl)cc2O1 (stereo unspecified) | 120 | 810 | 6900 | –
15 | C[C@@]1(C(=O)O)CCc2ccc(OCCCOc3ccc(OCC(F)(F)F)cc3Cl)cc2O1 | – | > 50000 | > 50000 | EC50 [10]: Not Active
16 | CC1(C)CCC(c2ccc(OCCCOc3ccc4c(c3)O[C@@](C)(C(=O)O)CC4)c(Cl)c2)CC1 | 1000 | 1700 | > 50000 | –

Row | SMILES | EC50 [2] [nM] | IC50 [4] [nM] | IC50 [5] [nM] | further results
17 | C[C@]1(C(=O)O)CCc2ccc(OCCCOc3ccc(OCC4CCC4)cc3Cl)cc2O1 | 140 | 390 | > 15000 | –
18 | C[C@]1(C(=O)O)CCc2ccc(OCCCOc3ccc(OCC(F)(F)F)cc3Cl)cc2O1 | 40 | 110 | > 15000 | half-life (in vivo [1]): 2.7 h; bioavailability (in vivo [11]): 88%; Efficacy (Cricetinae gen. sp. [9]): -54%; Efficacy (Cricetinae gen. sp. [7]): -60%; clearance (in vivo [3]): 5.1 mL/min/kg; clearance (in vivo [12]): 5.8 mL/min/kg; clearance (in vivo [13]): 5.6 mL/min/kg; half-life (in vivo [14]): 2.5 h; bioavailability (in vivo [15]): 100%; half-life (in vivo [16]): 6.2 h; bioavailability (in vivo [6]): 60%
19 | C[C@]1(C(=O)O)CCc2ccc(OCCCOc3ccc(Oc4ccc(F)cc4)cc3Cl)cc2O1 | 61 | 140 | 5000 | –
20 | COc1ccc(OCCCOc2ccc3c(c2)O[C@@](C)(C(=O)O)CC3)c(Cl)c1 | – | 3900 | > 50000 | –
21 | C[C@]1(C(=O)O)CCc2ccc(OCCCOc3ccc(OC(F)(F)F)cc3Cl)cc2O1 | 20 | 57 | 490 | –
22 | CC[C@]1(C(=O)O)CCc2ccc(OCCCOc3ccc(C(C)C)cc3Cl)cc2O1 | 24 | 38 | > 15000 | –
23 | CC[C@]1(C(=O)O)CCc2ccc(OCCCOc3ccc(OC(F)(F)F)cc3Cl)cc2O1 | 6 | 37 | 1900 | –
24 | CC[C@]1(C(=O)O)CCc2ccc(OCCCOc3ccc(C(F)(F)F)cc3Cl)cc2O1 | 36 | 90 | 2300 | –
25 | C[C@]1(C(=O)O)CCc2ccc(OCCCOc3ccc(C4CCCC4)cc3Cl)cc2O1 | 9 | 40 | 10500 | half-life (in vivo [1]): 1.3 h; Efficacy (Cricetinae gen. sp. [7]): -40%; clearance (in vivo [3]): 6.8 mL/min/kg; Efficacy (Cricetinae gen. sp. [8]): -21%; bioavailability (in vivo [6]): 54%
26 | CCOc1ccc(OCCCOc2ccc3c(c2)O[C@@](C)(C(=O)O)CC3)c(Cl)c1 | 220 | 1380 | > 15000 | –
27 | CCC(C)(C)c1ccc(OCCCOc2ccc3c(c2)O[C@@](C)(C(=O)O)CC3)c(Cl)c1 | 4 | 7 | 14000 | –
28 | CC[C@]1(C(=O)O)CCc2ccc(OCCCOc3ccc(F)cc3Cl)cc2O1 | – | > 15000 | > 15000 | EC50 [10]: Not Active
29 | CC(C)(C)c1ccc(OCCCOc2ccc3c(c2)O[C@@](C)(C(=O)O)CC3)c(Cl)c1 | 80 | 230 | > 15000 | –
30 | CC[C@]1(C(=O)O)CCc2ccc(OCCCOc3ccc(Cl)cc3Cl)cc2O1 | 130 | 400 | 4100 | –
31 | CC[C@]1(C(=O)O)CCc2ccc(OCCCOc3ccc(C(C)(C)C)cc3Cl)cc2O1 | 28 | 180 | > 50000 | –
32 | CC(C)OC(=O)C(C)(C)Oc1ccc(C(=O)c2ccc(Cl)cc2)cc1 [FENOFIBRATE] | – | – | – | Efficacy (Cricetinae gen. sp. [17]): -23%; Efficacy (Cricetinae gen. sp. [18]): -43%
